One assay has as its target Cruzain (Trypanosoma cruzi, UniProt P25779). As to the kind of experiment: Cysteine protease inhibition, progress curve method, cruzain. It counts as biochemical. As to conditions: 4 uM Ac-Lys-Glu-Lys-Leu-Arg-AMC, 100 mM Na acetate pH 5.5, 5 mM cysteine; read-out: Cruzain Ki. An outline of the steps:
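Buffer was 100 mM sodium acetate pH 5.5 with 5 mM cysteine and 2% DMSO, at ambient temperature; reactions started with enzyme, and AMC formation was followed for 20–30 min. Substrates: Leishmania and Schistosoma, 10 uM Cbz-Phe-Arg-AMC; falcipain, 10 uM Cbz-Leu-Arg-AMC; cruzain, 4 uM Ac-Lys-Glu-Lys-Leu-Arg-AMC. Linear curves gave Ki,app; curved ones gave kobs/[I].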

The target of another assay is Rhodazain (Trypanosoma brucei rhodesiense, UniProt Q95PM0). Briefly: Cysteine protease inhibition, progress curve method, rhodazain. The class given is biochemical, Trypanosoma brucei rhodesiensi. To be noted: 10 uM Cbz-Leu-Arg-AMC, 100 mM Na acetate pH 5.5, 5 mM cysteine.
Sequence of Rhodazain (Q95PM0 entry or part of it): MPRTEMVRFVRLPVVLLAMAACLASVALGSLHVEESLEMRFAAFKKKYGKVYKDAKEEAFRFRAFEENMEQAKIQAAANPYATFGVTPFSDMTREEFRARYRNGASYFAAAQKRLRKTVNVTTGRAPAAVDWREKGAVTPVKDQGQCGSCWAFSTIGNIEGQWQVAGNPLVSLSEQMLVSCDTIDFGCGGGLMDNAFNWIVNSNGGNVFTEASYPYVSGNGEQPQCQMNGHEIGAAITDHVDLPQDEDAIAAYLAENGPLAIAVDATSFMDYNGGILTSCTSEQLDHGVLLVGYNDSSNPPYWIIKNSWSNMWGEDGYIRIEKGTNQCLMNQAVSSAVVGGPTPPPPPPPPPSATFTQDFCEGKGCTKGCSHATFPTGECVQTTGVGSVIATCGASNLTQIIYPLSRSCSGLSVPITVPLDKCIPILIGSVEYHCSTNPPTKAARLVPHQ
In the next assay the target is Falcipain 2 (Plasmodium falciparum, UniProt Q8I6U4). As to the kind of experiment: Cysteine protease inhibition, progress curve method, falcipain. The class given is biochemical. As to conditions: 10 uM Cbz-Leu-Arg-AMC, 100 mM Na acetate pH 5.5, 5 mM cysteine. The procedure: Standard assay conditions for the determination of kinetic constants used 10 uM fluorogenic peptide substrate, Cbz-Phe-Arg-AMC for the cysteine proteases from Leishmania spp and Schistosoma Mansoni, Cbz-Leu-Arg-AMC for the cysteine proteases from Plasmodium falciparum and Trypanosoma brucei rhodesiensi, and Ac-Lys-Glu-Lys-Leu-Arg-AMC (4 uM final substrate concentration) for the cysteine protease from Trypoanosoma cruzi, and were determined in 100 mM Na acetate at pH 5.5 containing 5 mM cysteine. Stock substrate solutions were prepared at concentrations of […] in DMSO with 10 uM (4 uM for Ac-Lys-Glu-Lys-Leu-Arg-AMC) final substrate concentration in the assays. The final DMSO concentration was 2% and the final volume was 100 uL. All assays were conducted at ambient temperature. Product progress curves were generated over 20 to 30 minutes following formation of AMC product.
Sequence of Falcipain 2 (Q8I6U4 244-484): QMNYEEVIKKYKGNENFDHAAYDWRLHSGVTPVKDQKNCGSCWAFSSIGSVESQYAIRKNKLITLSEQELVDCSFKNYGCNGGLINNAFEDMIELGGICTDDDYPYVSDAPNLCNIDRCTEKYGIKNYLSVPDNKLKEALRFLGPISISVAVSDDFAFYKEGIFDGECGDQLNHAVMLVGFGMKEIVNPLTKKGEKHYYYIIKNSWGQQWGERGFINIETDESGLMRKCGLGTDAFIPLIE
Potential inhibitors were evaluated using the progress curve method. Assays were carried out in the presence of variable concentrations of test compound. Reactions were initiated by addition of enzyme to buffered solutions of inhibitor and substrate. Data analysis was conducted according to one of two procedures depending on the appearance of the progress curves in the presence of inhibitors. For those compounds whose progress curves were linear, apparent inhibition constants (Ki,app) were calculated according to equation 1 (Brandt et al., Biochemitsry, 1989, 28, 140):
v=VmA/[Ka(1+I/Ki,app)+A] (1)
Where v is the velocity of the reaction with maximal velocity Vm, A is the concentration of substrate with Michaelis constant of Ka, and I is the concentration of inhibitor.
[AMC]=vsst+(v0−vss)[1−exp (−kobst)]/kobs (2)
Where [AMC] is the concentration of product formed over time t, v0 is the initial reaction velocity and vss is the final steady state rate. Values for kobs were then analyzed as a linear function of inhibitor concentration to generate an apparent second order rate constant (kobs/inhibitor concentration or kobs/[I]) describing the time-dependent inhibition. A complete discussion of this kinetic treatment has been fully described (Morrison et al., Adv. Enzymol. Relat. Areas Mol. Biol., 1988, 61, 201).
Exemplary inhibition data for the compounds used in the present method collected in accordance with the above-described procedure are listed in Table I.

Read-outs that look alike come from different tables or passages of the source.

Sequence of Cruzain (P25779 123-337): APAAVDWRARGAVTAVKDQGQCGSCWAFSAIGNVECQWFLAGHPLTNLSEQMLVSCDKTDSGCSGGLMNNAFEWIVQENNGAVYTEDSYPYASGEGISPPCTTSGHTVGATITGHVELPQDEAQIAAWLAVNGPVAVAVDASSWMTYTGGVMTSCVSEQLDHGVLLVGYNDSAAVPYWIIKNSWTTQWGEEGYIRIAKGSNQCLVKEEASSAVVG

Consider `CC(C)C[C@H](NC(=O)c1cccc2ncccc12)C(=O)N[C@H]1CCCN(S(=O)(=O)c2ccccn2)CC1=O` [Example 185, Quinoline-5-carboxylic acid {(S)-3-methyl-1-[3-oxo-1-(pyridine-2-sulfonyl)-azepan-4-ylcarbamoyl]-butyl}-amide], for which the Ki stood at 1.8 nM on Cruzain, 2.1 nM on Rhodazain (Rhodazain Ki (nM)) and 4.4 nM on Falcipain 2.
Turning to `CC(C)CC(NC(=O)c1cc2ccccc2o1)C(=O)N[C@H]1CCCN(S(=O)(=O)c2nccn2C)CC1=O` (stereo partly drawn) [Example 40], the Ki at Cruzain was 2.3 nM; on Rhodazain (Rhodazain Ki (nM)), 2 nM; on Falcipain 2 it was 4.5 nM.
For the compound `COc1ccc2oc(C(=O)N[C@@H](CC(C)C)C(=O)N[C@H]3CCCN(C(=O)Nc4ccccc4F)CC3=O)cc2c1` [Example 221, 5-Methoxy-benzofuran-2-carboxylic acid {(S)-1-[1-(2-fluoro-phenylcarbamoyl)-3-oxo-azepan-4-ylcarbamoyl]-3-methyl-butyl}-amide], the inhibition constant Ki was determined as 3 nM on Cruzain, 1.2 nM on Rhodazain (Rhodazain Ki (nM)) and 2 nM on Falcipain 2.
Consider `CC(C)CC(NC(=O)c1ccc2c(c1)OCO2)C(=O)N[C@@H]1CCCN(S(=O)(=O)c2cccc[n+]2[O-])CC1=O` (single isomer, unassigned) [Example 76], for which the inhibition constant Ki at Cruzain came to 14 nM; on Rhodazain (Rhodazain Ki (nM)) it was 5.4 nM; on Falcipain 2 it was 7.8 nM.
As to `CC(C)C[C@@H](NC(=O)c1ccc2[nH]ccc2c1)C(=O)N[C@@H]1CCCN(S(=O)(=O)c2cccc[n+]2[O-])CC1=O` [Example 54, 1H-Indole-5-carboxylic acid {(S)-3-methyl-1-[3-oxo-1-(1-oxy-pyridine-2-sulfonyl)-azepan-4-ylcarbamoyl]-butyl}amide], the inhibitory constant (Ki) at Cruzain was 5.2 nM; on Rhodazain (Rhodazain Ki (nM)) it was 4.1 nM; at Falcipain 2, 7.8 nM.
With `CC(C)C[C@@H](NC(=O)c1ccc2ncccc2c1)C(=O)N[C@@H]1CCCN(S(=O)(=O)c2ccccn2)CC1=O` (single isomer, unassigned) [Example 152], the Ki at Cruzain was 2 nM; at Rhodazain (Rhodazain Ki (nM)) it was 1.6 nM; at Falcipain 2, 3.1 nM.
On to `COc1cc2cc(C(=O)N[C@H](CC(C)C)C(=O)N[C@H]3CCCN(S(=O)(=O)c4ccccn4)CC3=O)sc2cc1OC` (single isomer, unassigned) [Example 165], for which the Ki is 5.5 nM at Cruzain, 2.1 nM at Rhodazain (Rhodazain Ki (nM)) and 2.5 nM at Falcipain 2.
For `COc1ccc2oc(C(=O)N[C@H](CC(C)C)C(=O)N[C@@H]3CCCN(S(=O)(=O)c4ncccc4C)CC3=O)cc2c1` (stereo in doubt) [Example 162, 5-Methoxy-benzofuran-2-carboxylic acid {(S)-3-methyl-1-[1-(3-methyl-pyridine-2-sulfonyl)-3-oxo-azepan-4-ylcarbamoyl]-butyl}amide], the Ki was 2.7 nM on Cruzain, 2.5 nM on Rhodazain (Rhodazain Ki (nM)) and 6.1 nM on Falcipain 2.
On the same counts, the results for `CC(C)C[C@@H](NC(=O)c1ccc2ccccc2c1)C(=O)N[C@@H]1CCCN(S(=O)(=O)c2ccccn2)CC1=O` (single isomer, unassigned) [Example 155] are 4.1 nM, 3 nM and 6.1 nM.
As to `CC(C)C[C@@H](NC(=O)c1cnc2ccccc2c1)C(=O)N[C@@H]1CCCN(S(=O)(=O)c2ccccn2)CC1=O` (single isomer, unassigned) [Example 156], the values for the inhibition constant (Ki) on Cruzain, at Rhodazain (Rhodazain Ki (nM)) and at Falcipain 2 were 4.1 nM, 2.6 nM and 6.2 nM, respectively.
On to `COc1cc2cc(C(=O)N[C@@H](CC(C)C)C(=O)NC3CCCN(S(=O)(=O)c4cn(C)cn4)CC3=O)oc2cc1OC` (stereo partly drawn) [Example 39, 5,6-Dimethoxy-benzofuran-2-carboxylic acid {(S)-3-methyl-1-[3-oxo-1-(1-methyl-1H-imidazole-4-sulfonyl)-azepan-4-ylcarbamoyl]-butyl}amide], for which the Ki on Cruzain worked out at 7.4 nM; on Rhodazain (Rhodazain Ki (nM)), 2.2 nM; on Falcipain 2, 3.9 nM.
On to `CC(C)CC(NC(=O)c1ccc2c(c1)OCCCO2)C(=O)N[C@@H]1CCCN(S(=O)(=O)c2cccc[n+]2[O-])CC1=O` (single isomer, unassigned) [Example 78], for which the Ki at Cruzain worked out at 4.4 nM; at Rhodazain (Rhodazain Ki (nM)), 4.6 nM; on Falcipain 2 it was 7.1 nM.
For `COc1cccc2cc(C(=O)N[C@H](CC(C)C)C(=O)N[C@H]3CCCN(S(=O)(=O)c4ccccn4)CC3=O)oc12` [Example 164], the Ki at Cruzain was 4.2 nM; on Rhodazain (Rhodazain Ki (nM)), 5.1 nM; on Falcipain 2 it was 2.2 nM.
Consider “Benzofblthiophene-2-carboxylic acid {(S)-3-methyl-1-[3-oxo-1-(1-oxy-pyridine-2-sulfonyl)-azepan-4-ylcarbamoyl]-butyl}amide [Example 51]”, for which the inhibition constant (Ki) on Cruzain stood at 6.4 nM; at Rhodazain (read-out: Rhodazain Ki), 3 nM; on Falcipain 2, 5.1 nM.
Take `CC(C)C[C@@H](NC(=O)c1ccc2c(c1)OCO2)C(=O)N[C@@H]1CCCN(S(=O)(=O)c2ccccn2)CC1=O` (stereo in doubt) [Example 59, Benzo[1,3]dioxole-5-carboxylic acid {(S)-3-methyl-1-[3-oxo-1-(pyridine-2-sulfonyl)-azepan-4-ylcarbamoyl]-butyl}amide]: the Ki stood at 3.4 nM at Cruzain, 2.4 nM on Rhodazain (Rhodazain Ki (nM)) and 3.4 nM at Falcipain 2.
Consider `CC(C)C[C@@H](NC(=O)c1cc2ccccc2o1)C(=O)NC1CCCN(S(=O)(=O)c2ccccn2)CC1=O` (single isomer, unassigned) [Example 21], for which the Ki on Cruzain worked out at 3.8 nM; on Rhodazain (Rhodazain Ki (nM)) it was 3.2 nM; at Falcipain 2 it was 10 nM.
Turning to `COc1cccc2cc(C(=O)N[C@@H](CC(C)C)C(=O)N[C@@H]3CCCN(S(=O)(=O)c4cccs4)CC3=O)oc12` [Example 144, 7-Methoxy-benzofuran-2-carboxylic acid-{(S)-3-methyl-1-[3-oxo-1-(thiophene-2-sulfonyl)-azepan-4-ylcarbamoyl]-butyl}-amide], the inhibition constant Ki on Cruzain was determined as 5.5 nM; on Rhodazain (Rhodazain Ki (nM)), 8.6 nM; at Falcipain 2 it was 6.2 nM.
As for `CC(C)C[C@H](NC(=O)c1ccc(-c2cccc(C(F)(F)F)c2)o1)C(=O)N[C@@H]1CCCN(S(=O)(=O)c2ccccn2)CC1=O` [Example 66, 5-(3-Trifluoromethyl-phenyl)-furan-2-carboxylic acid {(S)-3-methyl-1-[3-oxo-1-(pyridine-2-sulfonyl)-azepan-4-ylcarbamoyl]-butyl}amide], the Ki is 5.1 nM at Rhodazain (Rhodazain Ki (nM)) and 10 nM at Falcipain 2.
On the same counts, the results for `CC(C)C[C@@H](NC(=O)c1ccc2cc[nH]c2c1)C(=O)N[C@@H]1CCCN(S(=O)(=O)c2ccccn2)CC1=O` (stereo in doubt) [Example 58, 1H-Indole-6-carboxylic acid {(S)-3-methyl-1-[3-oxo-1-(pyridine-2-sulfonyl)-azepan-4-ylcarbamoyl]-butyl}amide] are 3.1 nM and 7.1 nM.
In the case of `CC(C)C[C@@H](NC(=O)c1ccc(-c2cccc(C(F)(F)F)c2)o1)C(=O)N[C@@H]1CCCN(S(=O)(=O)c2cccc[n+]2[O-])CC1=O` [Example 119, 5-(3-Trifluoromethyl-phenyl)-furan-2-carboxylic acid {(S)-3-methyl-1-[3-oxo-1-(1-oxy-pyridine-2-sulfonyl)-azepan-4-ylcarbamoyl]-butyl}amide], the figures for the Ki on Rhodazain (Rhodazain Ki (nM)) and on Falcipain 2 were 5.1 nM and 8.1 nM, respectively.

Usually Ki stands for a dissociation constant, usually derived from enzyme kinetics or from competition with a known ligand.

These data come from patent US20030044399A1, “Method of treatment” (SmithKline Beecham Corporation, priority 1998, published 2003).
